Data on 8 compounds can be found in US20260125382A1, “COMPOUNDS FOR INHIBITING OR DEGRADING CDK2 AND/OR CDK9 AND MEDICINAL USE THEREOF” (KOREA RESEARCH INSTITUTE OF CHEMICAL TECHNOLOGY, priority 2022, published 2026).

Test [1] concerns the target T1, CDK9 (Homo sapiens, UniProt P50750).
T1 construct: endogenous in cells; host or cells: MDA-MB-231
Description: CDK protein degradation activity (Western blotting), CDK9. The class given is cell-based. Conditions: MDA-MB-231 cells, 16 hours, Western blot. The procedure: (§1) In order to evaluate the CDK protein degradation activity of the compounds according to the present invention, the following experiment was conducted.
(§2) MDA-MB-231 cells were seeded at 5×10^5 cells per well in a 6-well plate. The next day, the compounds were treated in each well to achieve final concentrations of 100 nM, 1 μM, and 10 μM. For the control group, an equal amount of DMSO was treated in the well as the compound. After 16 hours of treatment, cells were collected, and cell lysates were prepared using Triton X-100 lysis buffer (50 mM HEPES, pH 7.5, 40 mM NaCl, 1% Triton X-100, 1 mM EDTA, 1 mM EGTA, 10 mM pyrophosphate, 10 mM β-glycerophosphate, 50 mM NaF, 1 mM NaVO4, protease inhibitor). Cell lysates were quantified and separated by size using sodium dodecyl sulfate-polyacrylamide gel electrophoresis (SDS-PAGE). Western blotting was then performed using antibodies that recognize CDK2, CDK9, and tubulin, respectively. The results obtained by Western blotting were quantitatively analyzed using the ImageJ program, and representative images according to the experimental results are shown in FIG. 1.
(Immunoblotting shows a protein as a band on a membrane.)

The target in test [2] is T2, CDK2 (Homo sapiens, UniProt P24941).
T2 construct: endogenous in cells; host or cells: MDA-MB-231
The test can be described thus: CDK protein degradation activity (Western blotting), CDK2. Conditions: MDA-MB-231 cells, 16 hours, Western blot. The class given is cell-based. The procedure:
as §1, §2

T1 sequence (P50750 whole entry): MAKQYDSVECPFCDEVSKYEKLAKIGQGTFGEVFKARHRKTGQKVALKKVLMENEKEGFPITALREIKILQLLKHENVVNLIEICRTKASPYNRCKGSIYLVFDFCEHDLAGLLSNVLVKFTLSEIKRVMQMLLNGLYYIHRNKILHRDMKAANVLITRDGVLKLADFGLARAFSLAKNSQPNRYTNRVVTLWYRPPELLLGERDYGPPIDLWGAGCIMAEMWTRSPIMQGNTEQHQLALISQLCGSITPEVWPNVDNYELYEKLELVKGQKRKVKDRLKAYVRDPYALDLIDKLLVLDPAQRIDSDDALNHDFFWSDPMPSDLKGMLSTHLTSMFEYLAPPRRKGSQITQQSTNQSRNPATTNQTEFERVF

In the case of “2,6-dichloro-N-((1s,3s)-3-(6-((4-(4-((4-(1-(2-(2,6-dioxopiperidin-3-yl)-1,3-dioxoisoindolin-5-yl)azetidin-3-carbonyl)piperazin-1-yl)methyl)piperidin-1-yl)phenyl)amino)-9H-purin-9-yl)cyclobutyl)benzamide [Compound 473]”, in test [1], the “Enzyme degradation CDK9 (% remaining) @ 0.1 μM” value is 10/10/10%, the “Enzyme degradation CDK9 (% remaining) @ 1 μM” value was 10/10/10% and the “Enzyme degradation CDK9 (% remaining) @ 10 μM” value is on record as 10/10/10%. In test [2], the “Enzyme degradation CDK2 (% remaining) @ 0.1 μM” value is 20/20/20%, the “Enzyme degradation CDK2 (% remaining) @ 1 μM” value is reported as 20/20/20% and the “Enzyme degradation CDK2 (% remaining) @ 10 μM” value was 20/20/20%.

For `Cc1cccc(C(=O)N[C@H]2C[C@@H](n3cnc4c(NC5CCN(CCC6CCN(C(=O)CNc7ccc8c(c7)C(=O)N([C@H]7CCC(=O)NC7=O)C8=O)CC6)CC5)ncnc43)C2)n1` (racemic) [Compound 33, N-((1s,3s)-3-(6-((1-(2-(1-((2-(2,6-dioxopiperidin-3-yl)-1,3-dioxoisoindolin-5-yl)glycyl)piperidin-4-yl)ethyl)piperidin-4-yl)amino)-9H-purin-9-yl)cyclobutyl)-6-methylpicolinamide], in test [1], the “Enzyme degradation CDK9 (% remaining) @ 0.1 μM” value was 0/0/0%, the “Enzyme degradation CDK9 (% remaining) @ 1 μM” value is given as 0/0/0% and the “Enzyme degradation CDK9 (% remaining) @ 10 μM” value is on record as 0/0/0%. Also, in test [2], the “Enzyme degradation CDK2 (% remaining) @ 0.1 μM” value is reported as 40%, the “Enzyme degradation CDK2 (% remaining) @ 1 μM” value is reported as 30% and the “Enzyme degradation CDK2 (% remaining) @ 10 μM” value was found to be 50%.

On to `Cc1cccc(C(=O)N[C@H]2C[C@@H](n3cnc4c(NC5CCN(CCCN6CCN(c7ccc8c(c7)C(=O)N([C@H]7CCC(=O)NC7=O)C8=O)CC6)CC5)ncnc43)C2)n1` (racemic) [Compound 41, N-((1s,3s)-3-(6-((1-(3-(4-(2-(2,6-dioxopiperidin-3-yl)-1,3-dioxoisoindolin-5-yl)piperazin-1-yl)propyl)piperidin-4-yl)amino)-9H-purin-9-yl)cyclobutyl)-6-methylpicolinamide], for which, in test [1], the “Enzyme degradation CDK9 (% remaining) @ 0.1 μM” value was 0/0/0%, the “Enzyme degradation CDK9 (% remaining) @ 1 μM” value is reported as 0/0/0% and the “Enzyme degradation CDK9 (% remaining) @ 10 μM” value was 0/0/0%. Besides, in test [2], the “Enzyme degradation CDK2 (% remaining) @ 0.1 μM” value is listed as 60%, the “Enzyme degradation CDK2 (% remaining) @ 1 μM” value is reported as 60% and the “Enzyme degradation CDK2 (% remaining) @ 10 μM” value is recorded as 70%.

With `O=C1CC[C@H](N2C(=O)c3ccc(NCC(=O)N4CCC(CCCN5CCN(c6ccc(Nc7ncnc8c7ncn8[C@H]7C[C@@H](NC(=O)Cc8ccccc8)C7)cc6)CC5)CC4)cc3C2=O)C(=O)N1` (racemic) [Compound 255, N-((1s,3s)-3-(6-((4-(4-(3-(1-((2-(2,6-dioxopiperidin-3-yl)-1,3-dioxoisoindolin-5-yl)glycyl)piperidin-4-yl)propyl)piperazin-1-yl)phenyl)amino)-9H-purin-9-yl)cyclobutyl)-2-phenylacetamide], in test [1], the “Enzyme degradation CDK9 (% remaining) @ 0.1 μM” value is recorded as 0/0/0%, the “Enzyme degradation CDK9 (% remaining) @ 1 μM” value is on record as 0/0/0% and the “Enzyme degradation CDK9 (% remaining) @ 10 μM” value is given as 0/0/0%. Moreover, in test [2], the “Enzyme degradation CDK2 (% remaining) @ 0.1 μM” value was 30/30/30%, the “Enzyme degradation CDK2 (% remaining) @ 1 μM” value is listed as 30/30/30% and the “Enzyme degradation CDK2 (% remaining) @ 10 μM” value is 30/30/30%.

With `O=C1CC[C@H](N2C(=O)c3ccc(NCC(=O)N4CCC5(CC4)CC(N4CCC(c6ccc(Nc7ncnc8c7ncn8[C@H]7C[C@@H](NC(=O)Cc8ccccc8)C7)cc6)CC4)C5)cc3C2=O)C(=O)N1` (racemic) [Compound 296, N-((1s,3s)-3-(6-((4-(1-(7-((2-(2,6-dioxopiperidin-3-yl)-1,3-dioxoisoindolin-5-yl)glycyl)-7-azaspiro[3.5]nonan-2-yl)piperidin-4-yl)phenyl)amino)-9H-purin-9-yl)cyclobutyl)-2-phenylacetamide], in test [1], the “Enzyme degradation CDK9 (% remaining) @ 0.1 μM” value is 0/0/0%, the “Enzyme degradation CDK9 (% remaining) @ 1 μM” value is reported as 0/0/0% and the “Enzyme degradation CDK9 (% remaining) @ 10 μM” value is reported as 0/0/0%. Also, in test [2], the “Enzyme degradation CDK2 (% remaining) @ 0.1 μM” value was 20%, the “Enzyme degradation CDK2 (% remaining) @ 1 μM” value was determined as 0% and the “Enzyme degradation CDK2 (% remaining) @ 10 μM” value came to 0%.

As to `Cc1cccc(C(=O)N[C@H]2C[C@@H](n3cnc4c(NCCC5CCN(CC6CCN(C(=O)CCNc7ccc8c(c7)C(=O)N([C@H]7CCC(=O)NC7=O)C8=O)CC6)CC5)ncnc43)C2)n1` (racemic) [Compound 310, N-((1s,3s)-3-(6-((2-(1-((1-(3-((2-(2,6-dioxopiperidin-3-yl)-1,3-dioxoisoindolin-5-yl)amino)propanoyl)piperidin-4-yl)methyl)piperidin-4-yl)ethyl)amino)-9H-purin-9-yl)cyclobutyl)-6-methylpicolinamide], in test [1], the “Enzyme degradation CDK9 (% remaining) @ 0.1 μM” value turned out to be 40%, the “Enzyme degradation CDK9 (% remaining) @ 1 μM” value came to 0% and the “Enzyme degradation CDK9 (% remaining) @ 10 μM” value worked out at 0%. Moreover, in test [2], the “Enzyme degradation CDK2 (% remaining) @ 0.1 μM” value was found to be 100%, the “Enzyme degradation CDK2 (% remaining) @ 1 μM” value worked out at 70% and the “Enzyme degradation CDK2 (% remaining) @ 10 μM” value was found to be 100%.

For `N#Cc1cccc(C(=O)N[C@H]2C[C@@H](n3cnc4c(Nc5ccc(N6CCN(CC7CCN(c8ccc9nnn([C@H]%10CCC(=O)NC%10=O)c(=O)c9c8)CC7)CC6)cc5)ncnc43)C2)n1` (racemic) [Compound 418, 6-cyano-N-((1s,3s)-3-(6-((4-(4-((1-(3-(2,6-dioxopiperidin-3-yl)-4-oxo-3,4-dihydrobenzo[d][1,2,3]triazin-6-yl)piperidin-4-yl)methyl)piperazin-1-yl)phenyl)amino)-9H-purin-9-yl)cyclobutyl)picolinamide], in test [1], the “Enzyme degradation CDK9 (% remaining) @ 0.1 μM” value is reported as 0/0/0%, the “Enzyme degradation CDK9 (% remaining) @ 1 μM” value is 0/0/0% and the “Enzyme degradation CDK9 (% remaining) @ 10 μM” value is recorded as 0/0/0%. In test [2], the “Enzyme degradation CDK2 (% remaining) @ 0.1 μM” value was 10/10/10%, the “Enzyme degradation CDK2 (% remaining) @ 1 μM” value is given as 10/10/10% and the “Enzyme degradation CDK2 (% remaining) @ 10 μM” value is 10/10/10%.

As to `Cc1cccc(C(=O)N[C@H]2C[C@@H](n3cnc4c(NC5CCN(CCCCCCNc6ccc7c(c6)C(=O)N([C@H]6CCC(=O)NC6=O)C7=O)CC5)ncnc43)C2)n1` [Compound 17, N-((1s,3s)-3-(6-((1-(6-((2-(2,6-dioxopiperidin-3-yl)-1,3-dioxoisoindolin-5-yl)amino)hexyl)piperidin-4-yl)amino)-9H-purin-9-yl)cyclobutyl)-6-methylpicolinamide], in test [1], the “Enzyme degradation CDK9 (% remaining) @ 0.1 μM” value was determined as 10%, the “Enzyme degradation CDK9 (% remaining) @ 1 μM” value was 0% and the “Enzyme degradation CDK9 (% remaining) @ 10 μM” value was determined as 0%. Besides, in test [2], the “Enzyme degradation CDK2 (% remaining) @ 0.1 μM” value came to 90%, the “Enzyme degradation CDK2 (% remaining) @ 1 μM” value was 100% and the “Enzyme degradation CDK2 (% remaining) @ 10 μM” value came to 50%.
